Results on 35 compounds are retold here after patent publication US10654807B2, “Toll-like receptor 8 agonists” (The University Of Kansas, priority 2013, dated 2020).

“Also recorded” adds a separate entry of the source.

One assay has as its system human peripheral blood mononuclear cells. In words: cytokine/chemokine induction in human PBMCs (multiplexed bead array immunoassays). It is filed as cell-based. The conditions noted are these: 41-analyte multiplexed assay, human PBMCs, FIG. 9.
Description: Immunoassays for Cytokines:
Fresh human peripheral blood mononuclear cells (hPBMC) were isolated from human blood obtained by venipuncture with informed consent and as per institutional guidelines on Ficoll-Hypaque gradients. Aliquots of PBMCs (10^5 cells in 100 μL/well) were stimulated for 12 h with graded concentrations of test compounds. Supernatants were isolated by centrifugation, and were assayed in triplicates using analyte-specific multiplexed cytokine/chemokine bead array assays. PBMC supernatants were also analyzed for 41 chemokines and cytokines (EGF, Eotaxin, FGF-2, Fit-3 ligand, Fractalkine, G-CSF, GM-CSF, GRO, IFN-α2, IFN-γ, IL-10, IL-12 (p40), IL-12 (p70), IL-13, IL-15, IL-17, IL-1ra, IL-1α, IL-1β, IL-2, IL-3, IL-4, IL-5, IL-6, IL-7, IL-8, IL-9, IP-10, MCP-1, MCP-3, MDC (CCL22), MIP-1α, MIP-1β, PDGF-AA, PDGF-AB/BB, RANTES, TGFα, TNF-α, TNF-β, VEGF, sCD40L) using a magnetic bead-based multiplexed assay kit (Milliplex MAP Human Cytokine/Chemokine kit). Data were acquired and processed on a MAGPIX instrument (EMD Millipore, Billerica, Mass.) with an intra-assay coefficients of variation ranging from 4-8% for the 41 analytes.
`CCCCc1nc2c(N)nc3ccccc3c2n1Cc1ccccc1` [1-benzyl-2-butyl-1H-imidazo[4,5-c]quinolin-4-amine]: the “induction of G-CSF, GRO, MIP-1α and MIP-1β” value is on record as “did not”.

The assay is the same for the next values; noted with them: human PBMCs as well as whole human blood, FIGS. 3A-3T.
For `CCCCCc1cc2ccccc2nc1N` [Compound 14b, 3-Pentylquinolin-2-amine], the cytokine/chemokine induction profile entry is “induction of a specific set of chemokines and proinflammatory cytokines, including interleukins 12 and 18”.

The next assay relates to human TLR2, TLR3, TLR4, TLR5, TLR7, TLR9, TLR10, Nod1 and Nod2. In words: counter-screens in reporter cell lines specific for other human TLRs and Nod1/2.
Details: not given
It is filed as cell-based. In general terms: Counterscreens check selectivity or assay interference.
Take `CCCCOc1cc2ccccc2nc1N` [Compound 6, 3-(Butyloxy)quinolin-2-amine]: the “activity in counter-screens / specificity for human TLR8” value is listed as “specific for human TLR8”. On the same count and under the same terms, the same measure for `CCCCNc1cc2ccccc2nc1N` [Compound 9, N^3-Butylquinoline-2,3-diamine]: “specific for human TLR8”; for `CCCCSc1cc2ccccc2nc1N` [Compound 12, 3-(Butylthio)quinolin-2-amine]: “specific for human TLR8”.

For another assay, the system named is human TLR2/3/4/5/7/8/9 and NOD1/2. The assay is described as follows: primary screens: panel of reporter gene assays for TLR and NOD modulatory activities. The conditions noted are these: human TLR2/3/4/5/7/8/9 and NOD1/2 reporter gene assays. On the technique in general: A reporter such as luciferase makes a cellular process visible.
Excerpt: (§1) Human TLR2/-3/-4/-5/-7/-8/-9 Reporter Gene Assays (NF-κB Induction):
(§2) The induction of NF-κB was quantified using human TLR2/-3/-4/-5/-7/-8/-9-specific HEK-Blue™ reporter gene assays as previously described. HEK293 cells stably co-transfected with the appropriate hTLR, MD2, and secreted alkaline phosphatase (sAP), were maintained in HEK-Blue™ Selection medium containing zeocin and normocin. Stable expression of secreted alkaline phosphatase (sAP) under control of NF-κB/AP-1 promoters is inducible by appropriate TLR agonists, and extracellular sAP in the supernatant is proportional to NF-κB induction.
Consider `NCc1cc2c(o1)c(N)nc1ccccc12` [Compound A8x, 2-(aminomethyl)furo[2,3-c]quinolin-4-amine], for which the “activity in primary screens (reporter gene panel)” value is recorded as “none of these compounds were active in any primary screens”.

Consider `NCCc1cc2c(o1)c(N)nc1ccccc12` [Compound A8y, 2-(2-aminoethyl)furo[2,3-c]quinolin-4-amine], for which the “activity in primary screens (reporter gene panel)” value was “none of these compounds were active in any primary screens”. Same read-out and setting: the same measure for `CCOCCc1cc2c(o1)c(N)nc1ccccc12` [Compound A8w, 2-(2-ethoxyethyl)furo[2,3-c]quinolin-4-amine]: “none of these compounds were active in any primary screens”.

The target in another assay is T1, human TLR8 (Homo sapiens, UniProt Q9NR97).
T1 construct: HEK293 cells stably co-transfected with the appropriate hTLR, MD2, and secreted alkaline phosphatase (sAP); expressed in transfected cells; host or cells: HEK293 (HEK-Blue™)
T1 sequence (Q9NR97 27-1041): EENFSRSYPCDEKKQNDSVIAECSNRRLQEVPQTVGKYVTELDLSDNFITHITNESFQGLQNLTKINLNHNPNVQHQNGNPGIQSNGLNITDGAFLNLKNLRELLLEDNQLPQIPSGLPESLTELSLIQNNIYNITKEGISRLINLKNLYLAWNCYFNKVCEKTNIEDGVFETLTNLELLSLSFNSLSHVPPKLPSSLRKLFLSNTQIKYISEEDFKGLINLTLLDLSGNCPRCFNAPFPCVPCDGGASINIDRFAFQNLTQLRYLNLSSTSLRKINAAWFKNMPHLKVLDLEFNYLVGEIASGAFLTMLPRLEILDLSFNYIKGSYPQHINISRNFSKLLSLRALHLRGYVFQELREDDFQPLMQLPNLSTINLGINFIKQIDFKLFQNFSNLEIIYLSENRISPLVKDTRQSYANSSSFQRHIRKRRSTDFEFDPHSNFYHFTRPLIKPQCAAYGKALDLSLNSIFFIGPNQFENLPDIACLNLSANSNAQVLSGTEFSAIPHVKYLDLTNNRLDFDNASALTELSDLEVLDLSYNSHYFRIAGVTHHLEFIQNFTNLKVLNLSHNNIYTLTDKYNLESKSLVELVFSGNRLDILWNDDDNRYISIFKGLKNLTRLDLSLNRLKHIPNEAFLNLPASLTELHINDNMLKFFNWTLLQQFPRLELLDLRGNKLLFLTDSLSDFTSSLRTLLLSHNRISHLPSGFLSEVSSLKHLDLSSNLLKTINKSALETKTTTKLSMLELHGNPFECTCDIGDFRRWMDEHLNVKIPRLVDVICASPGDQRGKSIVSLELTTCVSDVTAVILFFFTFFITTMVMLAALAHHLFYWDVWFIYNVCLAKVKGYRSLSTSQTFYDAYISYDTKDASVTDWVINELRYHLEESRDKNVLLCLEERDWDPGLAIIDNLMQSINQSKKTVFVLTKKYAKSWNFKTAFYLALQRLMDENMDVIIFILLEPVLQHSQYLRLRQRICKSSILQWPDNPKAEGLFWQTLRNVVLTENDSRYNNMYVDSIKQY
The assay is described as follows: human TLR8-specific HEK-Blue reporter gene assay (NF-κB induction). Format: cell-based. The note with it: TLR8 primary screen.
Excerpt: as §1, §2
Regarding `CC(O)Cc1cc2c(o1)c(N)nc1ccccc12` (stereo not drawn) [Compound A8v, 1-(4-aminofuro[2,3-c]quinolin-2-yl)propan-2-ol], the “TLR8 agonistic activity” value is listed as “do not display TLR8 agonism”. The same measure, in the same setting: for `CCCCCc1cc2c(o1)c(N)nc1ccccc12` [Compound A8e, 2-pentylfuro[2,3-c]quinolin-4-amine] the value was “lower agonistic potencies”. For `CCCCc1cc2c(nc(N)c3ccccc32)o1` [Compound A18, 2-butylfuro[2,3-c]isoquinolin-5-amine], the “TLR8 agonistic activity” value was “inactive”. The same measure, in the same setting: the same measure for `Nc1nc2ccccc2c2cc(Cc3ccccc3)oc12` [Compound A8o, 2-benzylfuro[2,3-c]quinolin-4-amine]: “inactive”. Still for that read-out and setting: the same measure for `CC(C)CC(O)c1cc2c(o1)c(N)nc1ccccc12` (stereo not drawn) [Compound A8u, 1-(4-aminofuro[2,3-c]quinolin-2-yl)-3-methylbutan-1-ol]: “do not display TLR8 agonism”; for `Nc1nc2ccccc2c2ccoc12` [Compound A8a, furo[2,3-c]quinolin-4-amine]: “inactive”. `Cc1cc2c(o1)c(N)nc1ccccc12` [Compound A8b, 2-methylfuro[2,3-c]quinolin-4-amine]: the “TLR8 agonistic activity” value is listed as “lower agonistic potencies”. Same read-out and setting: for `CCCc1cc2ccnc(N)c2o1` [Compound A28a, 2-propylfuro[2,3-c]pyridin-7-amine] the value was “retained TLR8-selective agonistic activities; also recorded: feeble activity”; for `CCCCCCc1cc2c(o1)c(N)nc1ccccc12` [Compound A8f, 2-hexylfuro[2,3-c]quinolin-4-amine], “lower agonistic potencies”.

Take `Nc1nc2ccccc2c2cc(CCCO)oc12` [Compound A8r, 3-(4-aminofuro[2,3-c]quinolin-2-yl)propan-1-ol]: the “TLR8 agonistic activity” value is recorded as “do not display TLR8 agonism”. Take `Nc1nc2ccccc2c2cc(-c3ccccc3)oc12` [Compound A8n, 2-phenylfuro[2,3-c]quinolin-4-amine]: the “TLR8 agonistic activity” value was “inactive”.

Regarding `CCCc1cc2c(o1)c(N)nc1ccccc12` [Compound A8c, 2-propylfuro[2,3-c]quinolin-4-amine], the “TLR8 agonistic activity” value is given as “lower agonistic potencies”. On the same count and under the same terms, for `CCCCc1cc2ccnc(N)c2o1` [Compound A28b, 2-butylfuro[2,3-c]pyridin-7-amine] the value was “retained TLR8-selective agonistic activities; also recorded: feeble activity”.

Staying with this assay, now noted: cell-based TLR8-specific NF-κB transactivation assay; read-out: TLR8 agonistic potency EC50.
On to `CCCc1cc2ccnc(N)c2o1` [Compound A28a, 2-propylfuro[2,3-c]pyridin-7-amine], for which the EC50 came out at 24.4 µM. Consider `CCCCc1cc2ccnc(N)c2o1` [Compound A28b, 2-butylfuro[2,3-c]pyridin-7-amine], for which the EC50 stood at 46.2 µM.

The same assay, now with this note: human TLR8-specific reporter gene assays, Table 1.
On to `CCCCCc1cc(N)nc2ccccc12` [Compound 27b, 4-Pentylquinolin-2-amine], for which the “Agonistic Activity EC50 (μM) TLR8” value is listed as “Inactive”. On the same count and under the same terms, for `CCCCOc1cc(N)nc2ccccc12` [Compound 24a, 4-(Butyloxy)quinolin-2-amine] the value was “Inactive”; for `CCCCCOc1cc(N)nc2ccccc12` [Compound 24b, 4-(Pentyloxy)quinolin-2-amine], “Inactive”. Take `CCCCCCc1cc2ccccc2nc1N` [Compound 14c, 3-Hexylquinolin-2-amine]: the “Agonistic Activity EC50 (μM) TLR8” value is recorded as “Inactive”. As to `CCCCc1cc(N)nc2ccccc12` [Compound 27a, 4-Butylquinolin-2-amine], the “Agonistic Activity EC50 (μM) TLR8” value is given as “Inactive”. On the same count and under the same terms, for `CCCCCc1c(N)nc2ccccc2c1C` [Compound 21a, 4-Methyl-3-pentylquinolin-2-amine] the value was “Inactive^a”; for `CCCCCc1c(N)nc2ccccc2c1CC` [Compound 21b, 4-Ethyl-3-pentylquinolin-2-amine], “Inactive”. As for `CCCCCc1c(N)nc2ccccc2c1CCC(C)C` [Compound 21c, 4-Isopentyl-3-pentylquinolin-2-amine], the “Agonistic Activity EC50 (μM) TLR8” value was “Inactive”.

The same assay, now with this note: human TLR8-specific reporter gene assays, Table 1; read-out: Agonistic Activity EC50 (μM) TLR8.
On to `CCC/C=C/c1cc2ccccc2nc1N` [Compound 14d, (E)-3-(Pent-1-en-1-yl)quinolin-2-amine], for which the EC50 was found to be 2.67 µM. In the case of `CCCCCOc1cc2ccccc2nc1N` [Compound 6d, 3-(Pentyloxy)quinolin-2-amine], the EC50 was 7 µM. As to `CC(C)COc1cc2ccccc2nc1N` [Compound 6g, 3-(Isobutyloxy)quinolin-2-amine], the EC50 came out at 50 µM. On the same count and under the same terms, for `CCCC#Cc1cc2ccccc2nc1N` [Compound 14f, 3-(Pent-1-yn-1-yl)quinolin-2-amine] the value was 13 µM; for `CC(C)CCOc1cc2ccccc2nc1N` [Compound 6h, 3-(Isopentyloxy)quinolin-2-amine], 50 µM; for `CCCCOc1cc2ccccc2nc1N` [Compound 6, 3-(Butyloxy)quinolin-2-amine], 2.18 µM.

As to `CCCCNc1cc2ccccc2nc1N` [Compound 9, N^3-Butylquinoline-2,3-diamine], the EC50 came out at 4.28 µM. On the same count and under the same terms, the same measure for `CCCCCCOc1cc2ccccc2nc1N` [Compound 6e, 3-(Hexyloxy)quinolin-2-amine]: 50 µM.

As usually defined, the EC50 is the concentration giving half of the maximal effect.
